Measured values as given in patent US9365534B2, “Arylated camphenes, processes for their preparation and uses thereof” (Yissum Research Development Company of the Hebrew …, priority 2009, dated 2016).
Where two headings read alike, the source gives them in different places.

Assays:
[1] = molecular target: T1, human CB1 receptor (Homo sapiens (Human), UniProt P21554); experiment: Membrane competition binding assay with [3H]-CP 55,940, CHO-CB1 membranes
Excerpt: (§1) The cDNA clones for human HA-tagged CB1 and CB2 receptors were obtained from the Missouri S&T cDNA Resource Center (www.cdna.org) in cloning vector pcDNA3.1+. The vector containing the human CB2 receptor was transfected directly into CHO-KI cells obtained from ATCC. The HA-tagged human CB1 receptor sequence was subcloned into the pef4-V5-HisA vector with Kpn1 and Pme1 restriction enzymes and subsequently transfected into CHO-K1 cells. Cells were clonally isolated by limited dilution and screened by immunocytochemistry for expression of the HA tag.
(§2) Cells were maintained in DMEM/F12 media supplemented with 10% fetal bovine serum (FBS), 100 units/ml penicillin and 100 μg/ml streptomycin and 2 mM L-glutamine. Transfected cell lines were maintained with additional 150 ug/ml zeocin for pEF HA-CB1 transfected cells and 500 ug/ml G-418 for pcDNA HA-CB2 transfected cells (all reagents obtained from Invitrogen).
(§3) Cells were grown to confluence and harvested in ice cold phosphate buffered saline with 5 mM EDTA. Cells were spun at 200×g for 10 min and frozen at −80° C. until required. Cell pellets were thawed with cold 0.32 M sucrose and homogenised with a glass homogeniser. The homogenate was spun at 1000×g for 10 min at 4° C. and the supernatant spun in a Sorvall ultracentrifuge for 30 min at 100,000×g. The pellet was then washed in ice cold water and re-spun twice more. The final pellet was resuspended in 50 mM Tris pH 7.5, 0.5 mM EDTA. Protein concentration was determined using the Dc protein assay kit (BioRad, Hercules, Calif., USA).
(§4) Membranes (5-10 μg) were incubated with radioligand and a range of concentrations of test compounds in binding buffer (50 mM Tris pH 7.4, 5 mM MgCl2, 1 mM EDTA) with 0.5% (w/v) bovine serum albumin (BSA) (ICP Bio, New Zealand), at 30° C. for 60 min. Stock solutions of putative cannabinoid ligands were prepared in dimethyl sulfoxide to a concentration of 10 mM. Six different final concentrations of compounds were used ranging from 50 μM to 0.1 nM. […] Assays were terminated by addition of 2 ml ice cold binding buffer and filtration through GF/C filters (Whatman) pre-soaked in cold binding buffer, followed by two washes in the same buffer.
(§5) Radioactivity was determined by incubation of filters with Irgasafe scintillation fluid (PerkinElmer) and scintillation counting in a Wallac Trilux using Microbeta Trilux software. Data was analysed using the Prism 4.02 programme (GraphPad Software, San Deigo, Calif., USA).
(§6) All data was analyzed using Prism 4.02. For binding data the Ki was determined from IC50 values derived from competition binding data fitted with one site competition non-linear regression analysis by Prism 4.02 using the Kd values reported above.

[2] = molecular target: T2, human CB2 receptor (Homo sapiens (Human), UniProt P34972); experiment: Membrane competition binding assay with [3H]-CP 55,940, CHO-CB2 membranes
Excerpt: as §1, §2, §3, §4, §5, §6

[3] = molecular target: T1, human CB1 receptor; experiment: cell-based
Excerpt: as §1, §2
(§7) Cells were seeded at a density of 10,000 cells per well in poly-L-lysine treated 96-well culture plates (BD Biosciences). The following day wells were incubated with 40 μl DMEM/F12 containing 0.5% (w/v) BSA and 0.5 mM 3-isobutyl-1-methylxanthine (Sigma-Aldrich) for 30 minutes prior to 15 min stimulation with 50 μM forskolin (Tocris Cookson) and varying concentrations of indicated compounds at 37° C., 5% CO2. Assays were stopped by removal of media and addition of 100% ice cold ethanol. Plates were then frozen for a minimum of two hours before complete evaporation of ethanol. The well contents were then reconstituted in 50 μl cAMP assay buffer (20 mM HEPES pH 7.5 and 5 mM EDTA). Half of the reconstituted sample was transferred to round bottom 96-well plates (Greiner Bio-One GmbH) with 50 μl 0.01% w/v PKA (cAMP dependent protein kinase (Sigma-Aldrich) in 1 mM Na citrate pH 6.5 with 2 mM dithiothreitol) and 25 μl [^3H]-cAMP (at 22 nM in cAMP assay buffer) (GE Healthcare, Life Sciences). This was allowed to equilibrate for 3-18 hours. Following this a charcoal slurry (5% (w/v) activated charcoal and 0.2% (w/v) BSA in cAMP assay buffer) was added to the samples and the plates centrifuged at 3000×g, 4° C. for 5 min. Radioactive counts within the supernatant were then determined as described for competition binding assays.
(§8) pIC50 values were determined from cAMP assays by fitting a sigmoidal concentration response curve using Prism 4.02.

[4] = molecular target: T2, human CB2 receptor; experiment: cell-based
Excerpt: as §1, §2, §7, §8

[5] = molecular target: T2, human CB2 receptor; experiment: Membrane [35S]GTPγS binding assay; assay type: biochemical; conditions: read-out: [35S]GTPγS Emax
Experimental: Human CB2 expressing CHO-K1 membranes (5 μg per incubation mixture) were diluted in 50 mM Tris-HCl (pH 7.5) and 0.5 mM EDTA and added to HU compounds in a pre-mixed incubation cocktail. Final incubation concentrations were 55 mM Tris-HCl (pH 7.4), 1 mM EDTA, 100 mM NaCl, 5 mM MgCl2, 0.5% BSA, 50 μM GDP, 0.2 nM [^35S]GTPγS (PerkinElmer) with varied HU compound concentration and 5 μg membrane. Incubations were continued for 60 minutes at 30° C. in a shaking water bath. Assays were terminated by addition of 2 ml ice cold wash buffer (50 mM Tris-HCl, pH 7.5 and 5 mM MgCl2) and filtration through pre-soaked GF/C filters (Whatman), followed by two further washes. adioactivity was determined as described for competition binding assays.
Data was analyzed using the Prism 4.02 programme (GraphPad Software, San Deigo, Calif., USA). IC50 and EC50 values, as determined from sigmoidal curves, were generated from drug concentrations plotted in log scale. […] It is possible to display data as an average, plus or minus the standard error of the mean in log form, however, this is not easily interpreted or compared to other values. It was therefore elected to calculate the 95% confidence interval for the mean value in log form and then convert the lower limit, mean and upper limit into the molar (linear) scale. […] Two-tailed t-tests for statistical analysis between enantiomeric pairs of compounds were performed for CB2 Ki values. The Pearson value, an indication of linearity, was determined for Ki and IC50 or EC50 results obtained for CB2 receptors in binding, cAMP or GTPγS experiments, respectively.

[6] = CHO-CB1 cellular membranes, 2.5 nM [3H]-CP 55,940, read-out: Competition Binding Assay CB1 Receptor Ki
[7] = whole cells expressing CB1, 50 μM forskolin, read-out: cAMP Assay CB1 Receptor IC50
[8] = CHO, read-out: cAMP Assay CB2 Receptor Emax
[9] = read-out: cAMP Assay CB2 Receptor IC50
[10] = CHO-CB2 cellular membranes, 2.5 nM [3H]-CP 55,940
[11] = whole cells expressing CB2, 50 μM forskolin; read-out: cAMP Assay CB2 Receptor IC50

T1 sequence (P21554 whole entry): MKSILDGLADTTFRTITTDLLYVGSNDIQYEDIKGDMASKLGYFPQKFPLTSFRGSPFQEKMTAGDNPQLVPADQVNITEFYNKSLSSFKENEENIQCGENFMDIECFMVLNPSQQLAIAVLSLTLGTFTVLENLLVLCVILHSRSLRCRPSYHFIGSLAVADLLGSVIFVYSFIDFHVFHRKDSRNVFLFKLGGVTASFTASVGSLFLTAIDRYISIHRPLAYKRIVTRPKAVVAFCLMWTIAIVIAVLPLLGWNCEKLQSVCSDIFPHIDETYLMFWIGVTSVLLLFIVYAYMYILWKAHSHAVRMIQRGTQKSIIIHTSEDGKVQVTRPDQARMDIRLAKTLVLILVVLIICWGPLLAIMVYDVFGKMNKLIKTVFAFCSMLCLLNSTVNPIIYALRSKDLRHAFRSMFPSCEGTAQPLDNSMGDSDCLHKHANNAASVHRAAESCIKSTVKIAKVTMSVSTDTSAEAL

| SMILES | Ki [1, 6] | Ki [2] | IC50 [3, 7] | Emax [4, 8] | Ki [2, 10] | IC50 [4, 11] | further results |
| --- | --- | --- | --- | --- | --- | --- | --- |
| CCCCCc1cc(OC)c(C2=C[C@H]3CC[C@]2(C(=O)OC)C3(C)C)c(OC)c1 [HU-972, (1S,4R)-methyl-2-(2,6-dimethoxy-4-pentylphenyl)-7,7-dimethylbicyclo[2.2.1]hept-2-ene-1-carboxylate] | > 50 µM | 0.168 µM | > 50 µM | 48 ± 5% | – | – | IC50 [4, 9]: 0.313 µM |
| CCCCCCC(C)(C)c1cc(OC)c(C2=C[C@H]3CC[C@]2(C(=O)OC)C3(C)C)c(OC)c1 [HU-912, (1S,4R)-methyl-2-(2,6-dimethoxy-4-(2-methyloctan-2-yl)phenyl)-7,7-dimethylbicyclo[2.2.1]hept-2-ene-1-carboxylate] | > 10 µM | – | 3.37 µM | – | 0.0771 µM | 0.239 µM | Emax ([3]; CHO, percentage of maximal response of HU-210, mean ± SEM, read-out: cAMP Assay CB1 Receptor Emax): 112 ± 8%; Emax ([4]; CHO; read-out: cAMP Assay CB2 Receptor Emax): 107 ± 4% |
| CCCCCCC(C)(C)c1cc(OC)c(C2=C[C@@H]3CC[C@@]2(C)C3(C)C)c(OC)c1 [HU-908, (1S,4S)-2-(2,6-dimethoxy-4-(2-methyloctan-2-yl)phenyl)-1,7,7-trimethylbicyclo[2.2.1]hept-2-ene] | > 50 µM | – | > 50 µM | – | > 50 µM | > 50 µM | – |
| CCCCCc1cc(OC)c(C2=C[C@H]3CC[C@]2(C(=O)O)C3(C)C)c(OC)c1 [HU-974, (1S,4R)-2-(2,6-dimethoxy-4-pentylphenyl)-7,7-dimethylbicyclo[2.2.1]hept-2-ene-1-carboxylic acid] | > 50 µM | > 10 µM | > 50 µM | – | – | – | IC50 [4]: > 50 µM |
| CCCCCCC(C)(C)c1cc(OC)c([C@@H]2C=C(CO)[C@@H]3C[C@H]2C3(C)C)c(OC)c1 [HU-308, [(1R,2R,5R)-2-[2,6-dimethoxy-4-(2-methyloctan-2-yl)phenyl]-7,7-dimethyl-4-bicyclo[3.1.1]hept-3-enyl]methanol, reference compound] | – | – | – | 100% | – | – | Ki [1]: > 50 µM; IC50 [3]: > 50 µM; Emax [5]: 100% |
| CCCCCc1cc(OC)c(C2C(O)[C@]3(C)CC[C@H]2C3(C)C)c(OC)c1 (stereo partly drawn) [HU-938, (1R,4R)-3-(2,6-dimethoxy-4-pentylphenyl)-1,7,7-trimethylbicyclo[2.2.1]heptan-2-ol] | > 50 µM | – | > 50 µM | – | 7.91 µM | > 50 µM | – |
| CCCCCc1cc(OC)c(C2C(=O)[C@]3(C)CC[C@H]2C3(C)C)c(OC)c1 (stereo partly drawn) [HU-936, (1R,4R)-3-(2,6-dimethoxy-4-pentylphenyl)-1,7,7-trimethylbicyclo[2.2.1]heptan-2-one] | > 50 µM | – | > 50 µM | – | 1.72 µM | > 50 µM | – |
| CCCCCCC(C)(C)c1cc(OC)c(C2=C[C@]3(C)CC[C@H]2C3(C)C)c(OC)c1 [HU-917, (1S,4S)-3-(2,6-dimethoxy-4-(2-methyloctan-2-yl)phenyl)-1,7,7-trimethylbicyclo[2.2.1]hept-2-ene] | > 50 µM | – | > 50 µM | – | > 50 µM | > 50 µM | – |
| CCCCCc1cc(OC)c(C2=C[C@@H]3CC[C@@]2(C(=O)OC)C3(C)C)c(OC)c1 [HU-971, (1R,4S)-methyl-2-(2,6-dimethoxy-4-pentylphenyl)-7,7-dimethylbicyclo[2.2.1]hept-2-ene-1-carboxylate] | > 50 µM | 0.704 µM | > 50 µM | 31 ± 4% | – | – | IC50 [4, 9]: 1.53 µM |
| CCCCCc1cc(OC)c(C2=C[C@@H]3CC[C@@]2(C(=O)O)C3(C)C)c(OC)c1 [HU-973, (1R,4S)-2-(2,6-dimethoxy-4-pentylphenyl)-7,7-dimethylbicyclo[2.2.1]hept-2-ene-1-carboxylic acid] | > 50 µM | 1.15 µM | > 50 µM | 40 ± 6% | – | – | IC50 [4, 9]: 2.09 µM |
| CCCCCc1cc(OC)c(C2=C[C@@H]3CC[C@@]2(CO)C3(C)C)c(OC)c1 [HU-969, (1R,4S)-(2-(2,6-dimethoxy-4-pentylphenyl)-7,7-dimethylbicyclo[2.2.1]hept-2-en-1-yl)methanol] | > 50 µM | 6.46 µM | > 50 µM | – | – | – | IC50 [4]: > 50 µM |
| CCCCCCC(C)(C)c1cc(OC)c(C2=C[C@@]3(C)CC[C@@H]2C3(C)C)c(OC)c1 [HU-918, (1R,4R)-3-(2,6-dimethoxy-4-(2-methyloctan-2-yl)phenyl)-1,7,7-trimethylbicyclo[2.2.1]hept-2-ene] | > 50 µM | – | > 50 µM | – | > 50 µM | > 50 µM | – |
| CCCCCCC(C)(C)c1cc(OC)c(C2=C[C@H]3CC[C@]2(C)C3(C)C)c(OC)c1 [HU-907, (1R,4R)-2-(2,6-dimethoxy-4-(2-methyloctan-2-yl)phenyl)-1,7,7-trimethylbicyclo[2.2.1]hept-2-ene] | > 50 µM | – | > 50 µM | – | 2.51 µM | > 50 µM | – |
| CCCCCc1cc(OC)c(C2=C[C@H]3CC[C@]2(CO)C3(C)C)c(OC)c1 [HU-970, (1S,4R)-(2-(2,6-dimethoxy-4-pentylphenyl)-7,7-dimethylbicyclo[2.2.1]hept-2-en-1-yl)methanol] | > 50 µM | 1.27 µM | > 50 µM | 38 ± 2% | – | – | IC50 [4, 9]: 1.15 µM |
| CCCCCCC(C)(C)c1cc(O)c2c(c1)OC(C)(C)[C@@H]1CC=C(CO)C[C@@H]21 [HU-210, 1,1-Dimethylheptyl-11-hydroxy-tetrahydrocannabinol, reference compound] | – | – | – | – | – | – | Ki ([1]; read-out: Competition Binding Assay CB1 Receptor Ki): 0.00294 µM |
